Values after ≈ are worked out from the molar mass of the structure shown. Active and inactive are the calls of the source. The rule behind the calls is not given here.
Species on record: Bos taurus
Assay: Inhibition of bovine thymocytes protein tyrosine kinase assessed as angiotensin 1 phosphorylation

Going from `C[C@H]1O[C@@H](Oc2c(-c3cc(O)c(O)c(O)c3)oc3cc(O)cc(O)c3c2=O)[C@@H](O)[C@@H](O)[C@@H]1O` to `O=c1c(O)c(-c2cc(O)c(O)c(O)c2)oc2cc(O)cc(O)c12`, the ID50 falls from over 500 mg/L to 11 mg/L (≈ 34.6 µM).

Going from `O=c1cc(-c2ccc(O)cc2)oc2cc(O)cc(O)c12` to `COc1ccc(-c2cc(=O)c3c(O)cc(O)cc3o2)cc1`, the ID50 rises from 90 mg/L (≈ 333 µM) to 300 mg/L (≈ 1060 µM) (3.3-fold).

`COc1ccc(-c2coc3cc(O)cc(O)c3c2=O)cc1` and `O=c1c(-c2ccc(O)cc2)coc2cc(O)cc(O)c12` cannot be ordered by ID50: over 500 mg/L for the first, over 500 mg/L for the second.

Compared with `O=c1c(O)c(-c2ccc(O)c(O)c2)oc2cc(O)ccc12`, `O=c1c(O)c(-c2cc(O)c(O)c(O)c2)oc2cc(O)ccc12` is 5-fold lower in ID50: 35 mg/L (≈ 122 µM) for the first, 7 mg/L (≈ 23.2 µM) for the second.

`COc1ccc(-c2cc(=O)c3c(O)cc(OC)cc3o2)cc1` and `COc1ccc(-c2oc3cc(OC)cc(O)c3c(=O)c2OC)cc1` cannot be ordered by ID50: over 500 mg/L for the first, over 500 mg/L for the second.

First: O=C1C[C@@H](c2ccccc2)Oc2cc(O)cc(O)c21
Second: O=C1C[C@@H](c2ccc(O)cc2)Oc2cc(O)cc(O)c21
The ID50 of the first is higher: over 500 mg/L for the first, 80 mg/L (≈ 294 µM) for the second.

First: O=C1c2c(O)cc(O)cc2O[C@H](c2ccc(O)c(O)c2)[C@H]1O
Second: O=C1c2ccc(O)cc2O[C@H](c2ccc(O)c(O)c2)[C@H]1O
The ID50 of the first is lower: 270 mg/L (≈ 887 µM) for the first, over 500 mg/L for the second.

Compared with `O=c1c(-c2ccc(O)cc2)coc2cc(O)c(O)cc12`, `O=c1c(O)c(-c2ccc(O)c(O)c2)oc2cc(O)cc(O)c12` is lower in ID50: over 500 mg/L for the first, 11 mg/L (≈ 36.4 µM) for the second.

Compared with `COc1cc(C(=O)O)cc(OC)c1O`, `COc1cc(/C=C/C(=O)O)ccc1O` is lower in ID50: over 500 mg/L for the first, 350 mg/L (≈ 1800 µM) for the second.

Compared with `COc1ccc(-c2oc3cc(O)cc(O)c3c(=O)c2OC)cc1`, `COc1ccc(-c2cc(=O)c3c(O)c(OC)c(O)c(OC)c3o2)cc1` is lower in ID50: over 500 mg/L for the first, 48 mg/L (≈ 139 µM) for the second.

First: O=C(O)/C=C/c1ccc(O)cc1
Second: O=C1CC(c2ccccc2)Oc2cc(O)ccc21 (stereo not drawn)
The ID50 of the first is lower: 450 mg/L (≈ 2740 µM) for the first, over 500 mg/L for the second.

For `O=c1cc(-c2ccccc2)oc2ccc3ccccc3c12`, the Activity was “inactive”.

Reference: ChEMBL document CHEMBL1147305, “Inhibition of protein-tyrosine kinase activity by flavanoids and related compounds” (J Nat Prod, 1989)
